Data reported in patent US5554378A, “Pharmaceutical composition and its mucosal use” (Takeda Chemical Industries, Ltd., priority 1990, dated 1996).

How the values were obtained:
[1] = Blood glucose after intranasal delivery of insulin to rats; assay type: in vivo, Male SD rats; conditions: for Glucose (% relative to glucose level before administration): intranasal, insulin 10 U/kg, mean ± SE, n = 5 (SE in parentheses)
Protocol: (§1) Male SD rats (5 per group) weighing about 220 g were fasted for 16 hours. Under pentobarbital anaesthesia, the animals were prepared for intranasal therapy according to the procedure described in International Journal of Pharmaceutics 7, 317 (1981). Then, using a micropipet, 0.1 ml/kg of an insulin solution was directly administered into the nasal cavity and the blood was serially sampled from the tail vein for determination of blood glucose and insulin concentrations.
(§2) As said insulin solution, a solution of 10U of porcine insulin (about 0.38 mg) and 0 mg-5 mg of LThB (corresponding to 5%) in 0.1 ml of isotonic buffer (pH 7.4) was used.
(§3) Insulin dose: 10 U/Kg, SD rats, 7W, .male., 220 g
*% relative to glucose level before administration (mean ± SE, n = 5)

[2] = Plasma insulin level (EIA, GLAZYME Kit) after intranasal delivery of insulin to rats; assay type: in vivo, Male SD rats; conditions: for Insulin (plasma insulin level): insulin 10 U/kg
Protocol: as §1, §2, §3
Plasma insulin level: EIA (GLAZYME Kit, Wako)

Row | Substance | Blood glucose level on addition of LThB, compared with the control (without LThB) ([1]; intranasal with insulin, vs control without LThB) | Insulin (plasma insulin level) ([2]; 0.5 hr) [μU/ml] | Insulin (plasma insulin level) ([2]; 1.0 hr) [μU/ml] | Insulin (plasma insulin level) ([2]; 1.5 hr) [μU/ml] | Insulin (plasma insulin level) ([2]; 2.0 hr) [μU/ml] | Insulin (plasma insulin level) ([2]; 3.0 hr) [μU/ml] | Insulin (plasma insulin level) ([2]; 4.0 hr) [μU/ml] | Absorption of insulin from the nasal mucosa (blood insulin concentration) ([2]; with addition of LThB) | Glucose (% relative to glucose level before administration) ([1]; 0.5 hr) | Glucose (% relative to glucose level before administration) ([1]; 1.0 hr) | Glucose (% relative to glucose level before administration) ([1]; 1.5 hr) | Glucose (% relative to glucose level before administration) ([1]; 2.0 hr) | Glucose (% relative to glucose level before administration) ([1]; 3.0 hr) | Glucose (% relative to glucose level before administration) ([1]; 4.0 hr)
1 | LThB | marked fall of blood glucose level |  |  |  |  |  |  |  |  |  |  |  |  | 
2 | insulin, No addition: 10U of porcine insulin (about 0.38 mg) in 0.1 ml of isotonic buffer (pH 7.4), without LThB |  | 0.83 | 0.0 | 0.0 | 0.0 | 4.51 | 0.0 | effectively absorbed from the nasal mucosa | 135.9 (10.5) % | 141.7 (8.6) % | 133.4 (11.2) % | 127.3 (9.1) % | 132.9 (11.4) % | 136.3 (13.5) %
